| Structure (SMILES) | melting point |
| --- | --- |
| Fc1ccc(-c2nc(Cl)nc3c2CCC3)cc1 | 106 to 107 °C |
| O=C(Cc1ccccc1Nc1c(Cl)cccc1Cl)OCCOCCOCCO[N+](=O)[O-] | 68 °C |
| O=C(Nc1ccccc1)c1cccc(NC(=S)Nc2cc(Cl)cc(Cl)c2)c1 | 174 to 177 °C |
| O=C(O)CCS(=O)(=O)CCCl | 138 to 139 °C |
| CS(=O)(=O)c1ccc(-c2cc(CCCO[N+](=O)[O-])nn2C2CCCCC2)cc1 | 77 °C |
| O=C(O)CCCc1ccc(-c2ccc(F)cc2Cl)cc1 | 81 to 82 °C |
| NS(=O)(=O)c1cc(C(=O)O)cc([N+](=O)[O-])c1NCCc1ccccc1 | 208 °C |
| Cc1cc(SC2=C(O)CC(CCc3ccc(O)cc3)(C3CCCCC3)OC2=O)c(C(C)(C)C)cc1OS(=O)(=O)c1ccccc1 (stereo not given) | 180 °C |
| CC(C)(C)OC(=O)Nc1ccccc1NC(=O)c1ccc(C#N)nc1 | 183 to 184 °C |
| Cc1cc(-c2cc3cc(OCCNC[C@H](O)COc4ccccc4F)ccc3o2)no1 | 118 to 121 °C |
| O=C(c1ccc(Cl)cc1)c1ccc2c(c1)C(c1cccc(Cl)c1)SCc1nnnn1-2 (stereo not given) | 212 °C |
| Cc1cc(F)ccc1-c1nc(NCCO)nc2c1ccc(=O)n2-c1ccccc1F | 120 to 124 °C |
| Cc1oc(-c2ccc(C(F)(F)F)cc2)nc1COc1cc(F)cc(CN(O)C(N)=O)c1 | 156 to 157 °C |
| O=S(=O)(/C=C/c1ccccc1)Nc1ccc(F)cc1 | 83 to 85 °C |
| CNC(=O)n1sc(N(C)C)nc1=O | 164 °C |
| CC[C@H]1[C@H](O)[C@@H](C)C(=O)N1c1ccc(C#N)c(Cl)c1 | 120 to 123 °C |
| COC(=O)c1nc(CI)n(-c2ccc(Cl)cc2C(=O)c2ccccc2)n1 | 139 to 142 °C |
| CC(C)c1cccc(C(C)C)c1NC(=O)NC1CCOc2ccccc2C1 (stereo not given) | 184 to 186 °C |
| O=C(NCCCn1cnc2cnc3ccccc3c21)c1ccccc1 | 188 to 190 °C |
| COc1cccc(CNc2nc(NC[C@@H](C)O)nc3c2ncn3C(C)C)c1O | 100 to 103 °C |
| CCOc1nc(SC)nc(N2CCS(=O)CC2)c1C=O | 163 °C |
| CC(C)n1cc(C(=O)O)c2ccc(F)cc21 | 177 to 180 °C |
| CCCc1ccccc1OCC(O)COc1cccc2oc(C(=O)O)cc(=O)c12 (stereo not given) | 168 to 170 °C |
| O=C1C(=O)c2c(nc3ccccn23)-c2cccc(Br)c21 | > 260 °C |
| CCNC(=O)c1ccccc1NS(=O)(=O)C(F)(F)F | 85.5 to 87 °C |

| Structure (SMILES) | melting point |
| --- | --- |
| O=S1N=C(NCCCN(Cc2ccccc2)c2ccccn2)C(NCc2ccncc2)=N1 (stereo not given) | 140 to 142 °C |
| COC(=O)C(C)Oc1cc(C)ccc1COc1ccc([N+](=O)[O-])c(F)c1 (stereo not given) | 92 to 94 °C |
| O=C(NCc1ccc(Cl)cc1)c1cnc2ccc(I)cn2c1=O | 191 to 194 °C |
| CN1CCC(c2c[nH]c3ccc(SCc4ccccc4)cc23)CC1 | 138 to 141 °C |
| CN(C)C1CN(c2cc3nc4c(cc3cc2F)c(=O)c(C(=O)O)cn4C2CC2)C1 | 264 °C |
| O=C1N(Cc2ccc(C(F)(F)F)o2)c2ccccc2C12COc1cc3c(cc12)OCCO3 (stereo not given) | 53 to 56 °C |
| C[C@@H]1Cc2ccsc2[C@H](C)N1CCNC(=O)c1ccc(NC(=O)C(F)(F)F)cc1 (relative stereo) | 174 to 177 °C |
| O=C(O)c1cncc(-c2ccc(Cl)c(C(=O)NCC34CC5CC(CC(C5)C3)C4)c2)c1 | 178 to 182 °C |
| Cc1cc(OCc2ccccc2)cc2nc(OC(C)C)oc(=O)c12 | 137 to 138 °C |
| CCCn1cnc2c1c(=O)n(CCCC(C)(C)O)c(=O)n2C | 96 to 98 °C |
| CC(C)(C)OC(=O)N[C@H](CC(=O)OCc1ccccc1)C(=O)N[C@H](CO)C(C)(C)C | 186 to 187 °C |
| OCc1ccc(OCc2csc(-c3ccccc3)n2)nc1 | 134 to 135 °C |
| COC1(c2cccc(Sc3ccc4c(c3)C(C)(C)S(=O)(=O)C4(C)C)c2)CCOCC1 | 133 to 135 °C |
| Cn1c(=O)c2c(ncn2CC(O)Cc2noc(CCN3CCCCC3)n2)n(C)c1=O (stereo not given) | 110 to 111 °C |
| FC(F)(F)C1(C(F)(F)F)c2ccccc2Oc2ccccc21 | 74 to 75 °C |
| N#CCCCSc1nccc(NC(N)=NCC(F)(F)F)n1 | 137 °C |
| O=C1c2ccccc2C(=O)N1CC(O)COc1cccc2ccccc12 (stereo not given) | 152 to 154 °C |
| OCC1OC(n2cnc3c(NC4CCCCC4)nc(Cl)nc32)CC1O (stereo not given) | 160 to 162 °C |
| OCc1ccc(OCc2ccc3ccccc3n2)nc1 | 124 to 125 °C |
| O=c1cc(O)c(=O)c2ccc(O)cc2[nH]1 | > 350 °C |
| O=C(c1ccc(Cl)cc1)N1CCc2cc(S(=O)(=O)N3CCN(c4cccc(Cl)c4)CC3)ccc21 | 191 to 192 °C |
| Cc1cc(F)ccc1Nc1nc(N(C)c2ccccc2)c2cccc(OCCCN(C)C)c2n1 | 110 to 112 °C |
| COC(=O)[C@@H]1CCCN1C(=O)Nc1cc(Cl)cc(Cl)c1 | 110 to 112 °C |
| CC(=O)NCCCNC(=O)c1cc2c(ccc3cnn(C[C@H](C)N)c32)o1 | 81 °C |
| CC(COc1ccc(CC2SC(=O)NC2=O)cc1)NCC(O)CSc1ccccc1 (stereo not given) | 176 to 177 °C |

| Structure (SMILES) | melting point |
| --- | --- |
| CCN1CCCC1CNC(=O)c1cc(S(=O)(=O)CC)cc2c1OCCO2 (stereo not given) | 111 to 122 °C |
| COc1cc(NC(=O)OC(C)(C)C)c(N)cc1-c1ccccc1F | 161 °C |
| C[C@H]([C@](O)(Cn1cncn1)c1ccc(F)cc1F)S(=O)(=O)N1CCN(Cc2nncn2C)CC1 | 210 to 211 °C |
| CS(=O)(=O)c1cc(N)ccc1OC(F)(F)F | 106 to 109 °C |
| O=c1ccn2c(c1O)C(c1ccc(Cl)cc1)OCC2 (stereo not given) | 211 to 214 °C |
| Cc1c(C(F)(F)F)cnn(-c2cc(OCC3CCC3)c(Cl)cc2F)c1=O | 85.3 °C |
| Cc1cc(C(=O)NC2=NC(C)CC2(c2ccccc2)c2ccccc2)[nH]n1 (stereo not given) | 221 to 223 °C |
| COC(=O)c1ccc(C(=O)NS(=O)(=O)c2ccc(OC(F)(F)F)cc2)cn1 | 221 to 223 °C |
| CNc1cc(NS(=O)(=O)c2ccccc2)ccc1[N+](=O)[O-] | 172 to 174 °C |
| CCNC(=O)N1CCN(C2CCCc3ccc(OC)cc32)CC1 (stereo not given) | 141 to 143 °C |
| COC(C)c1cccc2[nH]c3cnc(C(=O)OC(C)C)c(C)c3c12 (stereo not given) | 153 to 154 °C |
| COc1cc(Nc2nc3cccc(-c4cccc(NC(C)=O)c4)c3o2)cc(OC)c1OC | 170 to 172 °C |
| CC1(C)CN(c2cccc(-c3cnc4[nH]cc(C(=O)C(C)(C)C)c4n3)c2)C1 | 227 to 229 °C |
| Clc1ccc(NN=Cc2cccs2)cc1 | 137 °C |
| COC(=O)c1ccc(CCN(C)c2cn([C@H]3CCc4c(F)cc(F)cc4C3)c(=S)[nH]2)cc1 | 159 to 160 °C |
| COCCOc1cccc(-c2ccc(C3CCN(S(=O)(=O)C(C)(C)C(=O)NO)CC3)cc2C)n1 | 134 to 138 °C |
| CCCCC(=O)N(Cc1ccc2c(c1)c1ccccc1n2CCc1nnn[nH]1)C(C(=O)O)C(C)C (stereo not given) | 111 to 112 °C |
| CC(C)Cc1nc2ccc(Br)cc2c(-c2ccccc2)c1CO | 116 to 118 °C |
| Cc1c(C=O)c2c(c(C)c1NC(=O)CC(C)(C)C)C(c1ccc(C(C)C)cc1)CS2 (stereo not given) | 134 to 140 °C |
| COc1cccc(CNc2ncnc3c2sc2nc(N4CCCC4)c4c(c23)CC(C)(C)OC4)c1OC | 166 to 168 °C |
| Clc1nc(Cl)nc(N2CCc3ccccc32)n1 | 254 to 256 °C |
| Cc1nc(N)n(N)c(=O)c1CCO | 126 to 135 °C |
| O=S(c1cn(-c2c(Cl)cc(C(F)(F)F)cc2Cl)c(Cl)n1)C(F)(F)F (stereo not given) | 148 °C |
| COC(=O)C(C)(C)S(=O)(=O)N1CCC(c2ccc(-c3cccc(OCCO)n3)c(C)c2)CC1 | 108 to 111 °C |
| COC(=O)[C@H](Cc1ccccc1)NC(=O)CCC#N | 71 to 72 °C |

| Structure (SMILES) | melting point |
| --- | --- |
| COC(=O)c1sccc1NC(=O)OC(C)C | 105 to 107 °C |
| CCCCCCC(C(=O)O)n1ccc2cc(-c3cccc(OC)c3C(=O)O)ccc21 (stereo not given) | 80 to 90 °C |
| FC(F)(F)c1ccn(-c2cc(N3CCOCC3)nc3ccccc23)n1 | 118 to 120 °C |
| [N-]=[N+]=NC(=O)C=Cc1cccc2[nH]ccc12 | 105 to 106 °C |
| COc1ccccc1-n1c(=O)[nH]c2c(C(N)=O)nc(-c3cccc([N+](=O)[O-])c3)nc21 | 295 to 296 °C |
| COC(=O)CCC1=C(N)CCC1=O | 223 to 224 °C |
| CCOc1ccc(C(C)=O)cc1S(N)(=O)=O | 148 to 151 °C |
| CC1CC2C3CCC4=CC(=O)C=CC4(C)C3C(O)CC2(C)C1C(=O)CI (stereo not given) | 153 °C |
| O=C1NC(C(Cl)(Cl)Cl)Nc2ccc([N+](=O)[O-])cc21 (stereo not given) | 278 to 280 °C |
| CC#CCOc1ccc(S(=O)(=O)N2CCOCC2C(=O)NO)cc1 (stereo not given) | 68 to 72 °C |
| O=C1C=C(c2ccc(Cl)c(S(=O)(=O)N3CCCC3)c2)OC1 | 108 to 111 °C |
| COc1cc(C(=O)NS(=O)(=O)c2ccccc2C)ccc1Cc1cn(C)c2ccc(C(=O)O)cc12 | 255 to 257 °C |
| CC(C)COc1nc(N)c2ncn(C3C=CCCC3)c2n1 (stereo not given) | 132 to 135 °C |
| CCOn1c(SC)n[nH]c1=O | 99 °C |
| COc1ccc(C2=NN(C3CCN(C(=O)c4cccnc4)CC3)C(=O)CC2)cc1OC | 162 to 164 °C |
| Nc1ncnc2c1c(C#CCO)nn2Cc1oc2ccccc2c(=O)c1-c1ccccc1 | 171 to 173 °C |
| C=CCOc1ccc(COc2ccc(CC(=O)O)cc2Cl)cc1 | 106 to 107 °C |
| C=CCn1cc(-c2ccccc2)c(=O)c(-c2ccccc2)c1 | 174 °C |
| CCCCCCNC(=O)Oc1ccc2c(c1)N(Cc1ccccc1)CCC2 | 85 °C |
| c1ccc(N2CCN(c3nn(-c4ccccc4)c4ccccc34)CC2)cc1 | 129 to 130 °C |
| O=C(CC12CC3CC(CC(C3)C1)C2)Nc1ccc2cn[nH]c2c1 | 245 °C |
| CN(C)C1(c2ccccc2)CCC(CNC(=O)NCCc2c[nH]c3ccc(F)cc23)CC1 (stereo not given) | 70 to 73 °C |
| CC(C)(C)c1ccc(C(O)CCCN2CCC(C(O)(c3ccccc3)c3ccc(C(C)(C)C)cc3)CC2)cc1 (stereo not given) | 179 to 182 °C |
| c1ccc(CSc2nc3cnccc3[nH]2)cc1 | 175 to 177 °C |
| O=C(Cl)c1cc(C(=O)Cl)[nH]n1 | 89 to 91 °C |

From a melting point compilation (Tetko et al.; mined from patent text by program, amines drawn as free bases though some values may be those of a salt)
